The subject of one assay is blood sugar levels. Put plainly: Effect of controlling increase of blood sugar levels in sucrose-loaded rats. It is filed as in vivo, rats of the SD series. Conditions: Rattus norvegicus, po, 3 h; 2 g/Kg sucrose and 5 mg/Kg test compound orally; ΔAUC over 180 minutes; male SD rats; read-out: Blood Level Increase Inhibition Ratio (%). As for the experimental part:
[Effect of Controlling Increase of Blood Sugar Levels]
Five-week-old male rats of the SD series are divided into groups, each consisting of 4 rats, and 2 g/Kg of sucrose and 5 mg/Kg of the test compound are orally administered. Blood is collected from the tail veins at predetermined intervals over a period of 180 minutes from the point of administration and the blood level values are measured. The area (ΔAUC) below the time-blood level increase curve is determined. The blood level increase inhibition ratio of the test compound is calculated from the basal value obtained in the group to which water alone has been administered and the control value obtained in the group to which sucrose alone has been administered according to the following formula: [formula]

The target in assay [1] is T1, α-1,4-glucanglucohydrolase (glucoamylase) (Rhizopus arrhizus, UniProt P07683).
T1 sequence (P07683 26-604): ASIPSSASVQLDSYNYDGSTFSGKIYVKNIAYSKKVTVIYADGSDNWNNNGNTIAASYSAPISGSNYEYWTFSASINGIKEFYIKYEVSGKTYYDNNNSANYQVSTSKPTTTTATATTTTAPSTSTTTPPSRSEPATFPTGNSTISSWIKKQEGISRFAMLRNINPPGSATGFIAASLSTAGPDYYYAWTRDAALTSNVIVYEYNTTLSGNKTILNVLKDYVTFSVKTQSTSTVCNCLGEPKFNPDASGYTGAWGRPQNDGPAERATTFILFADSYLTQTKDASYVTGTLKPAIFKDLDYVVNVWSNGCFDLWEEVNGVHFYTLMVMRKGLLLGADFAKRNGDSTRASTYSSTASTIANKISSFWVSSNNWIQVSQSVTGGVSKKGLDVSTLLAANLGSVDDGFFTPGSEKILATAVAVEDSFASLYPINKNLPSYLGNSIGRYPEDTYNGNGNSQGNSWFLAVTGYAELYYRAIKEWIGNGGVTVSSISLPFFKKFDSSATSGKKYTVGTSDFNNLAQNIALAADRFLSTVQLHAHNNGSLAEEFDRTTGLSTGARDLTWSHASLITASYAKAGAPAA
Put plainly: Inhibition of α-1,4-glucanglucohydrolase (glucoamylase), soluble starch substrate. It counts as biochemical. Conditions: read-out: percent inhibition at parenthesized concentration; for inhibition at 200 µg/mL: at 200 μg/ml (printed >200 μg/ml). As for the experimental part:
Moranoline, N-lower-alkylmoranolines, oligoglycosylmoranolines and N-lower-alkyloligoglucosylmoranolines inhibit the activity of α-1,4-glucanglucohydrolase. The inhibition is determined according to the following method.
Glucoamylase (crystal) derived from Rhizopus nivens (supplied by Seikagaku Kogyo K. K.) is dissolved in distilled water so that the concentration is 50 μg/ml and the enzyme is used in the form of the so obtained solution.
Soluble starch is dissolved in a buffer solution at a high temperature so that the concentration is 1.4%, and the solution is cooled to room temperature and used.
0.1 M phosphate buffer solution (pH=5.7)
The starting liquid is incubated at 40° C. for 10 minutes, and 1 ml of a 0.3 N solution of Ba(OH)2 and 1 ml of a 5% solution of ZnSO4 are added. Centifugal separation is conducted under a load of 2000×g for 10 minutes, and 30 μl of the supernatant is sampled and 3 ml of a glucose color reagent (supplied by Boelunger Mannheim Co.; new blood sugar test) was added to the supernatant. The mixture was allowed to stand at room temperature for 35 minutes and the absorbance at 420 nm is measured. The percent inhibition is calculated according to the following formula: [formula] wherein C stands for the absorbance of the control, T stands for the absorbance of the test sample, B' stands for the absorbance of the blank (I), and B stands for the absorbance of the blank (II).
The percent inhibition is also determined in respect of dilutions, and the concentration (IC50) providing 50% inhibition is found. In Table 4, the percent inhibition obtained at a parenthesized concentration is shown when the inhibition is low.

Assay [2] deals with T2, α-1,4-glucanglucohydrolase (Rhizopus arrhizus, UniProt P07683).
T2 sequence (P07683 26-604): T1 sequence (P07683 26-604)
Put plainly: Decomposition of the substance by α-1,4-glucanglucohydrolase (glucose release). It is filed as biochemical. The text has this:
Practically, reactions of the respective stages are advanced on a mixture of compounds differing in the glucose number (m). Accordingly, in order to accumulate intended G-MR in the liquid reaction mixture, it is indispensable that rate constants should be sufficiently high but the rate constant k1 should be sufficiently low. FIG. 4 clarifies this point. FIG. 4 will now be explained. A predetermined amount of N-methyloligoglycosylmoranoline is adsorbed on 1 g of Dowex 50W×2 (H^+) in an Erlenmeyer flask having a capacity of 125 ml, and they are suspended in 50 ml of distilled water and 10 mg of α-1,4-glucanglucohydrolase is added to the suspension. Incubation is carried out at 40° C., and 500 μl of the liquid is sampled at predetermined intervals and the amount of glucose is determined. When maltose is used as the substrate, it is mixed with 1 g of Dowex 50W×2 (H^+) and in this state, incubation is carried out at 40° C.
1 ml of 0.3 N Ba(OH)2 and 1 ml of 5% ZnSO4 are added to 500 μl of the reaction mixture liquid and centifugal separation is carried out under a load of 2000 g for 10 minutes. 30 μl of the supernatant is taken and 3 ml of a commercially available glucose color reagent (manufactured by Boehunger Mannheim Co.; new blood sugar test) is added to the sampled supernatant. The mixture is sufficiently stirred and allowed to stand at room temperature for 35 minutes and the absorbance at 420 nm is measured. Separately, a glucose reference reagent (9.1 mg/dl) is similarly treated and the absorbance at 420 nm is measured. Based on these measurements, the amount of glucose formed in the reaction mixture liquid is determined.
About 22 units/mg of α-1,4-glucanglucohydrolase (crystal) derived from Rhizopus niveus (supplied by Seikagaku Kogyo K.K.)
The reaction time is plotted on the abscissa and the ratio of decomposition based on complete decomposition of glucose is plotted on the ordinate. […] After determination of the amount of glucose, the reaction liquid is filtered and the ion exchange resin (Dowex 50W×2) is collected, washed with water sufficiently and eluted with 0.5 N aqueous ammonia. The eluate is concentrated under reduced pressure and dried to the solid. The solid is dissolved in distilled water and subjected to high speed liquid chromatography (Model ALC/GPC-244 supplied by Waters Co., μ-Bondapak NH2 column, acetonitrile/water=70/30, 1.5 cc/min), and the reaction product is identified by a chromatopac Model C-R1A supplied by Shimadzu Seisakusho K. K. The ratios of formation of N-methylmoranoline are […] in case of 4-(α-D-glucosyl)-N-methylmoranoline, 4-(α-D-amltosyl)-N-methylmoranoline, 4-(α-D-maltotriosyl)-N-methylmoranoline and 4-(α-D-maltotetraosyl)-N-methylmoranoline, respectively. […]

Each structure is given as a SMILES string.

On to `CCN1C[C@H](O)[C@@H](O)[C@H](O[C@H]2O[C@H](CO)[C@@H](O)[C@H](O)[C@H]2O)[C@H]1CO` [4-(α-D-glucosyl)-N-ethylmoranoline], for which the inhibition in vivo at 5 mg/kg in the assay with blood sugar levels was 22%. The inhibition at 800 µg/mL in assay [1] (at 800 μg/ml (printed >800 μg/ml)) was 38%.
For `CN1C[C@H](O)[C@@H](O)[C@H](O[C@H]2O[C@H](CO)[C@@H](O)[C@H](O)[C@H]2O)[C@H]1CO` [4-(α-D-glucosyl)-N-methylmoranoline], the inhibition in vivo at 5 mg/kg in the assay on blood sugar levels is 56%. In addition, the “decomposition by α-1,4-glucanglucohydrolase (in words)” value (“decomposition” below) in assay [2] (qualitative statement, FIG. 4) is listed as “extremely small”.
For `CCCN1C[C@H](O)[C@@H](O)[C@H](O[C@H]2O[C@H](CO)[C@@H](O)[C@H](O)[C@H]2O)[C@H]1CO` [4-(α-D-glucosyl)-N-propylmoranoline], the inhibition in vivo at 5 mg/kg in the assay with blood sugar levels turned out to be 24%.
In the case of `OC[C@H]1NC[C@H](O)[C@@H](O)[C@@H]1O[C@H]1O[C@H](CO)[C@@H](O)[C@H](O)[C@H]1O` [4-(α-D-glucosyl)-moranoline], the inhibition in vivo at 5 mg/kg with blood sugar levels came to 44%. For the same compound, the “decomposition” value in assay [2] (qualitative statement, FIG. 4) is given as “hardly decomposed”. In addition, in assay [1], the inhibition at 200 µg/mL is 15%.
Take `CN1C[C@H](O)[C@@H](O)[C@H](O[C@H]2O[C@H](CO)[C@@H](O[C@H]3O[C@H](CO)[C@@H](O[C@H]4O[C@H](CO)[C@@H](O[C@H]5O[C@H](CO)[C@@H](O[C@H]6O[C@H](CO)[C@@H](O)[C@H](O)[C@H]6O)[C@H](O)[C@H]5O)[C@H](O)[C@H]4O)[C@H](O)[C@H]3O)[C@H](O)[C@H]2O)[C@H]1CO` [4-(α-D-maltopentaosyl)-N-methylmoranoline]: in the assay with blood sugar levels, the inhibition in vivo at 5 mg/kg was found to be 23%.
As to `CCN1C[C@H](O)[C@@H](O)[C@H](O[C@H]2O[C@H](CO)[C@@H](O[C@H]3O[C@H](CO)[C@@H](O)[C@H](O)[C@H]3O)[C@H](O)[C@H]2O)[C@H]1CO` [4-(α-D-maltosyl)-N-ethylmoranoline], the inhibition in vivo at 5 mg/kg in the assay on blood sugar levels came to 35%.
For the compound `CN1C[C@H](O)[C@@H](O)[C@H](O[C@H]2O[C@H](CO)[C@@H](O[C@H]3O[C@H](CO)[C@@H](O)[C@H](O)[C@H]3O)[C@H](O)[C@H]2O)[C@H]1CO` [4-(α-D-maltosyl)-N-methylmoranoline], in the assay with blood sugar levels, the inhibition in vivo at 5 mg/kg is 62%.
For `OC[C@H]1NC[C@H](O)[C@@H](O)[C@@H]1O[C@H]1O[C@H](CO)[C@@H](O[C@H]2O[C@H](CO)[C@@H](O)[C@H](O)[C@H]2O)[C@H](O)[C@H]1O` [4-(α-D-maltosyl)-moranoline], the inhibition in vivo at 5 mg/kg in the assay on blood sugar levels worked out at 35%. Besides, the inhibition at 200 µg/mL in assay [1] amounted to 0%.
In the case of `CN1C[C@H](O)[C@@H](O)[C@H](O[C@H]2O[C@H](CO)[C@@H](O[C@H]3O[C@H](CO)[C@@H](O[C@H]4O[C@H](CO)[C@@H](O[C@H]5O[C@H](CO)[C@@H](O)[C@H](O)[C@H]5O)[C@H](O)[C@H]4O)[C@H](O)[C@H]3O)[C@H](O)[C@H]2O)[C@H]1CO` [4-(α-D-maltotetraosyl)-N-methylmoranoline], the inhibition in vivo at 5 mg/kg in the assay with blood sugar levels was 25%.
Consider `OC[C@H]1NC[C@H](O)[C@@H](O)[C@@H]1O[C@H]1O[C@H](CO)[C@@H](O[C@H]2O[C@H](CO)[C@@H](O[C@H]3O[C@H](CO)[C@@H](O[C@H]4O[C@H](CO)[C@@H](O)[C@H](O)[C@H]4O)[C@H](O)[C@H]3O)[C@H](O)[C@H]2O)[C@H](O)[C@H]1O` [4-(α-D-maltotetraosyl)-moranoline], for which the inhibition in vivo at 5 mg/kg in the assay on blood sugar levels worked out at 56%. Besides, in assay [1], the inhibition at 200 µg/mL amounted to 0%.
On to `CN1C[C@H](O)[C@@H](O)[C@H](O[C@H]2O[C@H](CO)[C@@H](O[C@H]3O[C@H](CO)[C@@H](O[C@H]4O[C@H](CO)[C@@H](O)[C@H](O)[C@H]4O)[C@H](O)[C@H]3O)[C@H](O)[C@H]2O)[C@H]1CO` [4-(α-D-maltotriosyl)-N-methylmoranoline], for which, in the assay on blood sugar levels, the inhibition in vivo at 5 mg/kg came out at 29%.
Turning to `OC[C@H]1NC[C@H](O)[C@@H](O)[C@@H]1O[C@H]1O[C@H](CO)[C@@H](O[C@H]2O[C@H](CO)[C@@H](O[C@H]3O[C@H](CO)[C@@H](O)[C@H](O)[C@H]3O)[C@H](O)[C@H]2O)[C@H](O)[C@H]1O` [4-(α-D-maltotriosyl)-moranoline], in the assay with blood sugar levels, the inhibition in vivo at 5 mg/kg was 31%. Also, the inhibition at 200 µg/mL in assay [1] is 0%.
Take `OC[C@H]1O[C@H](O[C@H]2[C@H](O)[C@@H](O)C(O)O[C@@H]2CO)[C@H](O)[C@@H](O)[C@@H]1O` (stereo partly shown) [maltose, reference compound]: the “decomposition” value was “decomposed substantially completely” in assay [2] (in 1 hour, 40° C., mixed with Dowex 50W×2 (H+)) and “promptly decomposed to glucose” in assay [2] (qualitative statement, FIG. 4).
Consider `OC[C@H]1NC[C@H](O)[C@@H](O)[C@@H]1O` [moranoline, Moranoline], for which, in the assay on blood sugar levels, the inhibition in vivo at 5 mg/kg came out at 19%.

The record behind these values is patent publication US4338433A, “Moranoline derivatives and process for preparation thereof” (Nippon Shinyaku Co. Ltd., priority 1979, dated 1982).
